Measurements as given in the supplement of paper PMC13207355.

Experiments:
Conditions in all cases: exposure time: 72 h
E13 [1] = patient-derived glioblastoma stem cells of classical subtype; test: surviving fraction (nuclei count normalised to DMSO); higher = more cells surviving (less toxic)
E21 [2] = patient-derived glioblastoma stem cells of mesenchymal subtype; test: as above
E28 [3] = patient-derived glioblastoma stem cells of classical subtype; test: as above
E31 [4] = patient-derived glioblastoma stem cells of proneural subtype; test: as above
E34 [5] = patient-derived glioblastoma stem cells of proneural subtype; test: as above
E57 [6] = patient-derived glioblastoma stem cells of mesenchymal subtype; test: as above
FT3469 [7] = normal neural stem cell line; test: as above
E13 [8] = test: phenotypic distance (Euclidean, principal components) from DMSO controls (arbitrary units); higher = stronger morphological change
E21 [9] = test: as above
E28 [10] = test: as above
E31 [11] = test: as above
E34 [12] = test: as above
E57 [13] = test: as above
FT3469 [14] = test: as above
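Wherever phenotypic distance (Euclidean, principal components) from DMSO controls is given: cell Painting imaging in 384-well plates, CellProfiler features reduced to at least 20 principal components, Euclidean distance versus same-plate DMSO vehicle wells (0.1% v/v), median over six images per well.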
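Wherever surviving fraction (nuclei count normalised to DMSO) is given: nuclei counted by high-content imaging of Hoechst-stained cells in laminin-coated 384-well plates, relative to 0.1% DMSO vehicle wells, with staurosporine as cell-death control.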

CC(C)C[C@H](NC(=O)[C@H](Cc1ccccc1)NC(=O)c1cnccn1)B(O)O [Bortezomib]
Conditions | phenotypic distance | surviving fraction
E13 [1], 4.11523 nM | – | 0.00185
E13 [1], 12.34567901 nM | – | 0.551
E13 [1], 37.037 nM | – | 0.000925
E13 [1], 111.1111111 nM | – | 0.0074
E13 [1], 333.333 nM | – | 0.000925
E13 [1], 1000 nM | – | 0.00185
E13 [1], 3000 nM | – | 0
E13 [8], 4.11523 nM | 16.9 | –
E13 [8], 12.34567901 nM | 2.3 | –
E13 [8], 37.037 nM | 17.1 | –
E13 [8], 111.1111111 nM | 12 | –
E13 [8], 333.333 nM | 14.2 | –
E13 [8], 1000 nM | 13.5 | –
E13 [8], 3000 nM | 21.9 | –
E21 [2], 4.11523 nM | – | 0.00595
E21 [2], 12.34567901 nM | – | 0.00198
E21 [2], 37.037 nM | – | 0.000991
E21 [2], 111.1111111 nM | – | 0.000991
E21 [2], 333.333 nM | – | 0.00297
E21 [2], 1000 nM | – | 0.00198
E21 [2], 3000 nM | – | 0
E21 [9], 4.11523 nM | 10.7 | –
E21 [9], 12.34567901 nM | 17.6 | –
E21 [9], 37.037 nM | 18.1 | –
E21 [9], 111.1111111 nM | 23.9 | –
E21 [9], 333.333 nM | 14.3 | –
E21 [9], 1000 nM | 18.7 | –
E21 [9], 3000 nM | 23.7 | –
E28 [3], 4.11523 nM | – | 0.0619
E28 [3], 12.34567901 nM | – | 0.0854
E28 [3], 37.037 nM | – | 0.0576
E28 [3], 111.1111111 nM | – | 0.0896
E28 [3], 333.333 nM | – | 0.0747
E28 [3], 1000 nM | – | 0.0576
E28 [3], 3000 nM | – | 0.105
E28 [10], 4.11523 nM | 5.69 | –
E28 [10], 12.34567901 nM | 4.88 | –
E28 [10], 37.037 nM | 6.77 | –
E28 [10], 111.1111111 nM | 5.66 | –
E28 [10], 333.333 nM | 5.33 | –
E28 [10], 1000 nM | 6.17 | –
E28 [10], 3000 nM | 5.47 | –
E31 [4], 4.11523 nM | – | 0.00325
E31 [4], 12.34567901 nM | – | 0.0114
E31 [4], 37.037 nM | – | 0.00651
E31 [4], 111.1111111 nM | – | 0
E31 [4], 333.333 nM | – | 0.00163
E31 [4], 1000 nM | – | 0
E31 [4], 3000 nM | – | 0.00163
E31 [11], 4.11523 nM | 8.53 | –
E31 [11], 12.34567901 nM | 10.1 | –
E31 [11], 37.037 nM | 10.2 | –
E31 [11], 111.1111111 nM | 21.4 | –
E31 [11], 333.333 nM | 11.7 | –
E31 [11], 1000 nM | 17.1 | –
E31 [11], 3000 nM | 12.6 | –
E34 [5], 4.11523 nM | – | 0.0594
E34 [5], 12.34567901 nM | – | 0.0507
E34 [5], 37.037 nM | – | 0.0385
E34 [5], 111.1111111 nM | – | 0.0332
E34 [5], 333.333 nM | – | 0.035
E34 [5], 1000 nM | – | 0.0227
E34 [5], 3000 nM | – | 0.0385
E34 [12], 4.11523 nM | 10.2 | –
E34 [12], 12.34567901 nM | 9.58 | –
E34 [12], 37.037 nM | 13.4 | –
E34 [12], 111.1111111 nM | 13.5 | –
E34 [12], 333.333 nM | 13.9 | –
E34 [12], 1000 nM | 12.6 | –
E34 [12], 3000 nM | 12.6 | –
E57 [6], 4.11523 nM | – | 0.00967
E57 [6], 12.34567901 nM | – | 0.00153
E57 [6], 37.037 nM | – | 0.00662
E57 [6], 111.1111111 nM | – | 0.00611
E57 [6], 333.333 nM | – | 0.00255
E57 [6], 1000 nM | – | 0.00305
E57 [6], 3000 nM | – | 0.00611
E57 [13], 4.11523 nM | 10.4 | –
E57 [13], 12.34567901 nM | 15.6 | –
E57 [13], 37.037 nM | 11.2 | –
E57 [13], 111.1111111 nM | 10.8 | –
E57 [13], 333.333 nM | 12.5 | –
E57 [13], 1000 nM | 12.2 | –
E57 [13], 3000 nM | 9.88 | –
FT3469 [7], 4.11523 nM | – | 0.207
FT3469 [7], 12.34567901 nM | – | 0.193
FT3469 [7], 37.037 nM | – | 0.233
FT3469 [7], 111.1111111 nM | – | 0.161
FT3469 [7], 333.333 nM | – | 0.158
FT3469 [7], 1000 nM | – | 0.121
FT3469 [7], 3000 nM | – | 0.104
FT3469 [14], 4.11523 nM | 5.9 | –
FT3469 [14], 12.34567901 nM | 7.61 | –
FT3469 [14], 37.037 nM | 8.16 | –
FT3469 [14], 111.1111111 nM | 8 | –
FT3469 [14], 333.333 nM | 7.22 | –
FT3469 [14], 1000 nM | 8.26 | –
FT3469 [14], 3000 nM | 6 | –

COc1ccc2[nH]c([S+]([O-])Cc3ncc(C)c(OC)c3C)nc2c1 (stereo unspecified) [Omeprazole]
Conditions | phenotypic distance | surviving fraction
E13 [1], 4.1 nM | – | 1.05
E13 [1], 12.3 nM | – | 0.938
E13 [1], 37 nM | – | 0.905
E13 [1], 111.1 nM | – | 1.03
E13 [1], 333.3 nM | – | 0.869
E13 [1], 1000 nM | – | 1
E13 [1], 3000 nM | – | 0.867
E13 [8], 4.1 nM | 1.1 | –
E13 [8], 12.3 nM | 0.755 | –
E13 [8], 37 nM | 3.51 | –
E13 [8], 111.1 nM | 0.567 | –
E13 [8], 333.3 nM | 0.654 | –
E13 [8], 1000 nM | 2.01 | –
E13 [8], 3000 nM | 2.52 | –
E21 [2], 4.1 nM | – | 0.918
E21 [2], 12.3 nM | – | 0.928
E21 [2], 37 nM | – | 1.02
E21 [2], 111.1 nM | – | 0.96
E21 [2], 333.3 nM | – | 0.928
E21 [2], 1000 nM | – | 0.956
E21 [2], 3000 nM | – | 0.943
E21 [9], 4.1 nM | 0.405 | –
E21 [9], 12.3 nM | 0.66 | –
E21 [9], 37 nM | 0.543 | –
E21 [9], 111.1 nM | 0.648 | –
E21 [9], 333.3 nM | 0.808 | –
E21 [9], 1000 nM | 0.429 | –
E21 [9], 3000 nM | 0.519 | –
E28 [3], 4.1 nM | – | 0.929
E28 [3], 12.3 nM | – | 1.07
E28 [3], 37 nM | – | 1.08
E28 [3], 111.1 nM | – | 1.01
E28 [3], 333.3 nM | – | 0.973
E28 [3], 1000 nM | – | 1.12
E28 [3], 3000 nM | – | 1.07
E28 [10], 4.1 nM | 0.44 | –
E28 [10], 12.3 nM | 0.413 | –
E28 [10], 37 nM | 0.667 | –
E28 [10], 111.1 nM | 0.895 | –
E28 [10], 333.3 nM | 0.743 | –
E28 [10], 1000 nM | 0.799 | –
E28 [10], 3000 nM | 0.723 | –
E31 [4], 4.1 nM | – | 0.952
E31 [4], 12.3 nM | – | 1.04
E31 [4], 37 nM | – | 1.03
E31 [4], 111.1 nM | – | 0.985
E31 [4], 333.3 nM | – | 1.06
E31 [4], 1000 nM | – | 0.947
E31 [4], 3000 nM | – | 0.777
E31 [11], 4.1 nM | 0.572 | –
E31 [11], 12.3 nM | 0.759 | –
E31 [11], 37 nM | 0.563 | –
E31 [11], 111.1 nM | 0.747 | –
E31 [11], 333.3 nM | 0.837 | –
E31 [11], 1000 nM | 0.778 | –
E31 [11], 3000 nM | 0.726 | –
E34 [5], 4.1 nM | – | 1.02
E34 [5], 12.3 nM | – | 1.19
E34 [5], 37 nM | – | 1.12
E34 [5], 111.1 nM | – | 0.869
E34 [5], 333.3 nM | – | 0.988
E34 [5], 1000 nM | – | 1.04
E34 [5], 3000 nM | – | 0.988
E34 [12], 4.1 nM | 1.17 | –
E34 [12], 12.3 nM | 0.774 | –
E34 [12], 37 nM | 1.1 | –
E34 [12], 111.1 nM | 0.579 | –
E34 [12], 333.3 nM | 1.09 | –
E34 [12], 1000 nM | 0.511 | –
E34 [12], 3000 nM | 0.693 | –
E57 [6], 4.1 nM | – | 1.08
E57 [6], 12.3 nM | – | 0.963
E57 [6], 37 nM | – | 0.934
E57 [6], 111.1 nM | – | 0.99
E57 [6], 333.3 nM | – | 0.91
E57 [6], 1000 nM | – | 1.01
E57 [6], 3000 nM | – | 0.926
E57 [13], 4.1 nM | 0.551 | –
E57 [13], 12.3 nM | 0.53 | –
E57 [13], 37 nM | 0.343 | –
E57 [13], 111.1 nM | 0.729 | –
E57 [13], 333.3 nM | 0.596 | –
E57 [13], 1000 nM | 0.755 | –
E57 [13], 3000 nM | 1.11 | –
FT3469 [7], 4.1 nM | – | 0.946
FT3469 [7], 12.3 nM | – | 1.04
FT3469 [7], 37 nM | – | 1
FT3469 [7], 111.1 nM | – | 0.823
FT3469 [7], 333.3 nM | – | 1.04
FT3469 [7], 1000 nM | – | 0.979
FT3469 [7], 3000 nM | – | 0.976
FT3469 [14], 4.1 nM | 0.923 | –
FT3469 [14], 12.3 nM | 0.698 | –
FT3469 [14], 37 nM | 0.685 | –
FT3469 [14], 111.1 nM | 1.14 | –
FT3469 [14], 333.3 nM | 0.549 | –
FT3469 [14], 1000 nM | 0.593 | –
FT3469 [14], 3000 nM | 0.772 | –
